# Experimental data from US11505574B2, “Modulation of P53 for the treatment of cancer” (THE REGENTS OF THE UNIVERSITY OF CALIFORNIA, priority 2016, dated 2022).
# Legend:
# [1] = tested on: MCF7 tumor spheres; assay: MCF7 tumor sphere assay; type: cell-based, human; conditions: MCF7 cells; 5 μM; 6.25 ng/mL doxorubicin; 7 days (FIGS. 34E, 34F)
# Experimental: For the experiments shown in FIG. 34E, MCF7 cells were plated at a density of 20,000 cells per well using 2 mL Mammocult media in 6-well ultra-low adherent plates. The following day, cells were treated with Pen-Ctrl or Pen-Pep8 at a concentration of 5 μM. Peptides were added to each well for 20 minutes followed by 6.25 ng/mL doxorubicin. Cells were grown for 7 days and then the number of tumor spheres that were larger than 50 μm in diameter were counted (i.e., 20 10× photos were randomly taken and tumor spheres counted from the digital photos). For the graph shown in FIG. 34F, statistical analysis was performed using the student's t-test (n=3; *p≤0.05).
# For the experiments shown in FIG. 36C, MCF7 cells were plated at a density of 20,000 cells per well using 2 mL Mammocult media in 6-well ultra-low adherent plates. The following day, cells were treated with 150 nM Cyc-Ctrl or Cyc-Pep8 (SEQ ID NO:5). 150 nM Cyc-Ctr/Pep8 was incubated in 100 μL serum-free DMEM with 3 μg PEP1 for 25 minutes before being added to the cells. After 20 minutes, 3.125 ng/mL doxorubicin was added to the cells for 7 days. Cells were grown for 7 days and then tumor spheres were counted that were larger than 50 μm in diameter (i.e., 20 10× photos were randomly taken and tumor spheres were counted from the digital photos).
# [2] = tested on: RKO tumor xenograft; assay: RKO tumor xenograft model in nude mice; type: in vivo
# Experimental: 6-week-old female nude mice were used for the xenograft study (FIG. 35A). 1×10^6 RKO cells in a 1:1 mixture of matrigel:DMEM (serum-free) were injected into the right flank of the nude mice. After tumors had grown to a size of about 100 mm^3, treatment with either Pen-Ctrl or Pen-Pep8 (5 μM in 50 μL sterile PBS) was administered by intratumoral injection every 2 days for 2 weeks. After treatment, the animals were sacrificed and tumors were excised, measured, and weighed followed by being flash frozen (n=6 for each group). Xenograft volume over the course of treatment and final tumor weight after the animals were sacrificed are shown in FIGS. 35B and 35C, respectively. Furthermore, pieces of the frozen xenografts were cut using a sterile scalpel and then the tumor tissue was lysed and lysate was run on a 10% SDS-PAGE gel followed by Western blotting for Puma, p53, and actin.
# [3] = tested on: p53; assay: Western blot for p53 and downstream targets in MCF7 cells treated with peptides; type: cell-based, human; conditions: MCF7 cells
# [4] = tested on: MIA-PaCa-2 pancreatic cancer cells; assay: MIA-PaCa-2 cell colony formation assay (peptides); type: cell-based, human; conditions: miaPaCa2 cells (mutant p53); 10 μM for 20 minutes then 0.25 ng/mL doxorubicin 18 hours (FIG. 37D)
# Excerpt: […] […] After colonies formed they were fixed (i.e., using 7:1 MeOH:glacial acetic acid) and stained with crystal violet.
# [5] = tested on: HaCaT cells; assay: HaCaT cell colony formation assay; type: cell-based; conditions: HaCaT cells (mutant p53); 10 μM for 20 minutes then 0.5 ng/mL doxorubicin 18 hours (FIG. 37D)
# Experimental: For the experiments shown in FIG. 37D, HaCaT and MiaPaCa2 cells were grown in 6-well plates at 500 cells per well. The following day, 10 μM Pen-Ctrl (SEQ ID NO:10), Pen-Pep23 (SEQ ID NO:9), or Pen-Pep8 (SEQ ID NO:50) were added to the cells for 20 minutes followed by treatment with 0.5 ng/mL doxorubicin (for HaCaT cells) or 0.25 ng/mL doxorubicin (for miaPaCa2 cells) for 18 hours, then the media was changed to fresh DMEM. After colonies formed they were fixed (i.e., using 7:1 MeOH:glacial acetic acid) and stained with crystal violet.
sequence,measurement,setting,value
"RQIKIWFQNRRMKWKKYPYAASPA [Pen-Pep8, Penetratin fused to Pep8]","number of tumor spheres larger than 50 μm in diameter, sensitization to low dose doxorubicin",[1],sensitized cells to low dose doxorubicin
same,"RKO tumor cell growth in a xenograft model (tumor volume, tumor weight)","[2]; female nude mice, 5 μM in 50 μL PBS, intratumoral injection every 2 days for 2 weeks, versus Pen-Ctrl (FIGS. 35A-35C)",inhibited RKO tumor cell growth
same,p53 and Puma protein expression in xenograft tumors (Western blot),"[2]; lysate from RKO xenograft tumors after treatment, versus Pen-Ctrl (FIG. 35D)","increased p53 protein expression, as well as its target, Puma"
same,p53 expression with low dose doxorubicin (Western blot),[3]; 2.5 μM for 20 minutes then 6.25 ng/mL doxorubicin 18 hours (FIG. 34B),robust p53 expression
same,p53 expression (Western blot),"[3]; 2.5 μM, 18 hours (FIG. 32C)",induced p53 expression
same,p53 protein levels (Western blot),"[3]; 2.5 μM, 18 hours (FIG. 37B)",increased p53 protein levels
same,"colony formation, sensitization to low-dose doxorubicin",[4],sensitized to low-dose doxorubicin
same,"colony formation, sensitization to low-dose doxorubicin",[5],sensitized to low-dose doxorubicin
